ChEMBL document CHEMBL5390202, “Cannabinoid Receptor Type II Ligands from Sandalwood Oil and Synthetic α-Santalol Derivatives” (J Nat Prod, 2023)
Activity calls are given as the source filed them. No cut-off for these calls is given here.

Key:
[1] = biological target: T1, Cannabinoid receptor 2 (Homo sapiens, UniProt P34972); test: Displacement of [3H]-CP55940 from human CB2 receptor expressed in CHO cell membranes at 10 uM incubated for 1 hr by TopCount liquid scintillation counting analysis relative to control; conditions: Membrane
[2] = biological target: D(2) dopamine receptor (Rattus norvegicus, UniProt P61169); test: Displacement of [3H]-raclopride from rat brain striatum dopamine D2 receptor incubated for 60 mins by liquid scintillation counting analysis; format: tissue-based
[3] = biological target: T1, Cannabinoid receptor 2; test: Displacement of [3H]-CP55940 from human CB2 receptor expressed in CHO cell membranes assessed as inhibition constant incubated for 1 hr by TopCount liquid scintillation counting analysis; parameters: species or system Membrane
[4] = biological target: Cannabinoid receptor 1 (Homo sapiens) (UniProt P21554); test: Displacement of [3H]-CP55940 from human CB1 receptor expressed in CHO cell membranes at 10 uM incubated for 1 hr by TopCount liquid scintillation counting analysis relative to control; conditions: Membrane
[5] = biological target: 5-hydroxytryptamine receptor 2A (Rattus norvegicus, UniProt P14842); test: Displacement of [3H]-ketanserin from rat brain cortex 5-HT2A receptor incubated for 60 mins by liquid scintillation counting analysis; format: tissue-based
[6] = biological target: T1, Cannabinoid receptor 2; test: Agonist activity at CB2 receptor (unknown origin) expressed in human SH-SY5Y cells assessed as increase in intracellular calcium flux at 3.2 to 10 uM incubated for 3 mins in presence of 10 uM raloxifene by Fluo-4AM dye based fluorescence analysis; format: functional, cell-based; conditions: dose 3.2-10 µM
[7] = biological target: T1, Cannabinoid receptor 2; test: Agonist activity at CB2 receptor (unknown origin) expressed in human SH-SY5Y cells assessed as increase in intracellular calcium flux at 3.2 to 10 uM incubated for 3 mins in presence of 60 nM AM-630 by Fluo-4AM dye based fluorescence analysis; format: functional, cell-based; conditions: dose 3.2-10 µM
[8] = biological target: T1, Cannabinoid receptor 2; test: Agonist activity at CB2 receptor (unknown origin) expressed in human SH-SY5Y cells assessed as increase in intracellular calcium flux at 3.2 to 10 uM incubated for 3 mins by Fluo-4AM dye based fluorescence analysis; format: functional, cell-based; conditions: filed as agonist, dose 3.2-10 µM
[9] = biological target: T1, Cannabinoid receptor 2; test: Potency index, ratio of alpha-santalol Ki to test compound Ki for displacement of [3H]-CP55940 from human CB2 receptor expressed in CHO cell membranes incubated for 1 hr by TopCount liquid scintillation counting analysis; conditions: Membrane, filed as agonist
[10] = biological target: T1, Cannabinoid receptor 2; test: Agonist activity at CB2 receptor (unknown origin) expressed in human SH-SY5Y cells assessed as increase in intracellular calcium flux at 0.032 to 0.1 uM incubated for 3 mins by Fluo-4AM dye based fluorescence analysis; format: functional, cell-based; conditions: filed as agonist, dose 0.032-0.1 µM
[11] = biological target: T1, Cannabinoid receptor 2; test: Agonist activity at CB2 receptor (unknown origin) expressed in human SH-SY5Y cells assessed as increase in intracellular calcium flux at 0.032 to 0.1 uM incubated for 3 mins in presence of 60 nM AM-630 by Fluo-4AM dye based fluorescence analysis; format: functional, cell-based; conditions: dose 0.032-0.1 µM
[12] = biological target: T1, Cannabinoid receptor 2; test: Agonist activity at CB2 receptor (unknown origin) expressed in human SH-SY5Y cells assessed as increase in intracellular calcium flux at 0.032 to 0.1 uM incubated for 3 mins in presence of 10 uM raloxifene by Fluo-4AM dye based fluorescence analysis; format: functional, cell-based; conditions: dose 0.032-0.1 µM

T1 sequence (P34972 whole entry): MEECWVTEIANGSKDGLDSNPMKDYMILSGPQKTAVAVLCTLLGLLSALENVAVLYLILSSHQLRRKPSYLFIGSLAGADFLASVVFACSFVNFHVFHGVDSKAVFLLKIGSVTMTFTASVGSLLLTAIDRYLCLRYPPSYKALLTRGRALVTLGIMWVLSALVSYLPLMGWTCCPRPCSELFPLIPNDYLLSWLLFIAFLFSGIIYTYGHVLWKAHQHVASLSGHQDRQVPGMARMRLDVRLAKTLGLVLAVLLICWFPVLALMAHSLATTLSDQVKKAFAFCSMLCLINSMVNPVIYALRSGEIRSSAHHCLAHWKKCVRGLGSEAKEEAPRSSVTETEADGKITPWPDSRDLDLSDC
Chain of Cannabinoid receptor 1 (Homo sapiens) (P21554 whole entry): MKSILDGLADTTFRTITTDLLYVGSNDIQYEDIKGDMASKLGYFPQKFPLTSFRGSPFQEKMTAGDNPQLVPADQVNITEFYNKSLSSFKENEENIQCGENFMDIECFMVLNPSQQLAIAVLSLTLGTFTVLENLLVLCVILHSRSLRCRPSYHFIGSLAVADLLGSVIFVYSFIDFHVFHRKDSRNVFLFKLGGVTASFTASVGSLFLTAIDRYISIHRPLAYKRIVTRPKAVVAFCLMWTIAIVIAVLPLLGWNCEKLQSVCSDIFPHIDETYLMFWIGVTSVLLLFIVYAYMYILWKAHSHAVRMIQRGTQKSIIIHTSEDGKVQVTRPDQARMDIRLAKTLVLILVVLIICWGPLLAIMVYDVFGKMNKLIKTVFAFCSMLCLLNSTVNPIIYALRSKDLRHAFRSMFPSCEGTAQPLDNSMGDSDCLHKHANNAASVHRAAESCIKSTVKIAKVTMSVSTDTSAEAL
Chain of D(2) dopamine receptor (P61169 whole entry): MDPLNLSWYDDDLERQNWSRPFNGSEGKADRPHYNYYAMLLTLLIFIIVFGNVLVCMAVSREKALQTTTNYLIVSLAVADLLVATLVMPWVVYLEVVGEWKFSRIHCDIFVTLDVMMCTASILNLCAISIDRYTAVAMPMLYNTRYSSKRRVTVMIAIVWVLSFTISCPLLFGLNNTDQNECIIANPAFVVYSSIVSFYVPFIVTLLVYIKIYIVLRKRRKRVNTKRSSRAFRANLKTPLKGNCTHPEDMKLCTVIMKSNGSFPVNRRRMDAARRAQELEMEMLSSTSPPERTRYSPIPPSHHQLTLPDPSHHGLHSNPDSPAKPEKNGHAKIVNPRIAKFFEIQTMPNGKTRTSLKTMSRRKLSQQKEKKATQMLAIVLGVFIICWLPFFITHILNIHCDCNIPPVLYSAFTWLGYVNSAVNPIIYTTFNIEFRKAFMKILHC
Chain of 5-hydroxytryptamine receptor 2A (P14842 whole entry): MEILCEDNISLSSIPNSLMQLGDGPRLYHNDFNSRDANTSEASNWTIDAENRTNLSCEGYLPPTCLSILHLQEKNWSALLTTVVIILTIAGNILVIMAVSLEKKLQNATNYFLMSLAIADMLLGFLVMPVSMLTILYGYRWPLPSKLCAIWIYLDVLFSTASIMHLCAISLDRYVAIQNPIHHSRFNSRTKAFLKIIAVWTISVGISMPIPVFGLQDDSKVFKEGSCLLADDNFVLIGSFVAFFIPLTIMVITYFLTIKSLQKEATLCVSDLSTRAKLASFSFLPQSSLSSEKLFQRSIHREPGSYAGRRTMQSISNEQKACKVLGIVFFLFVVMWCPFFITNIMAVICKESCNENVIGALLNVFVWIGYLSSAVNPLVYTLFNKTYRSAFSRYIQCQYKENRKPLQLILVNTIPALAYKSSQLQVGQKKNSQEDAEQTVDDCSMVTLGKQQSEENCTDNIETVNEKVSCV

C/C(=C/CC[C@]1(C)[C@@H]2C[C@@H]3[C@H](C2)[C@@]31C)CN1CCCCC1
Activity [1]: 16.8%

C/C(=C/CC[C@]1(C)[C@H]2CC3[C@H](C2)[C@]31C)CO
IC50 [2]: 75 µM
Ki [3]: 10.5 µM
Activity [4]: < 16%
IC50 [5]: 180 µM
Activity ([1]; filed as agonist): 62.5%
Activity [6]: inactive
Activity [7]: inactive
Activity [8]: Active

C/C(=C/CC[C@]1(C)[C@@H]2C[C@@H]3[C@H](C2)[C@@]31C)CNNC(=O)c1ccccc1
Activity [1]: 26.9%

C/C(=C/CC[C@]1(C)[C@H]2C[C@@H]3[C@@H](C2)[C@]31C)CN1CCN(C)CC1
Ki [3]: 0.99 µM
Ratio Ki [9]: 10.6
Activity [10]: Active
Activity [4]: < 20%
Activity ([1]; filed as agonist): 82.1%
Activity [11]: inactive
Activity [12]: inactive

C/C(=C/CC[C@]1(C)[C@@H]2C[C@@H]3[C@H](C2)[C@@]31C)CN(CCO)CCO
Activity [1]: 1.72%

COc1ccc(C(=O)c2c(C)n(CCN3CCOCC3)c3cc(I)ccc23)cc1
Activity ([1]; filed as antagonist): 93%

C/C(=C/CC[C@]1(C)[C@@H]2C[C@@H]3[C@H](C2)[C@@]31C)CNNC(=O)c1ccc(N(C)C)cc1
Activity [1]: 26.5%

C/C(=C/CC[C@]1(C)[C@@H]2C[C@@H]3[C@H](C2)[C@@]31C)COC(=O)CCC(=O)O
Activity [1]: 5.82%

C/C(=C/CC[C@]1(C)[C@@H]2C[C@@H]3[C@H](C2)[C@@]31C)CN1CCOCC1
Activity [1]: 21.3%

C/C(=C/CC[C@]1(C)[C@@H]2C[C@@H]3[C@H](C2)[C@@]31C)CN(C)C
Activity [1]: 2.94%

C/C(=C/CC[C@]1(C)[C@@H]2C[C@@H]3[C@H](C2)[C@@]31C)CN1CCCC1
Activity [1]: 8.03%

O=C(c1ccc(OCCN2CCCCC2)cc1)c1c(-c2ccc(O)cc2)sc2cc(O)ccc12 [RALOXIFENE]
Ki [3]: ~0.24 µM

C=C1[C@@H]2CC[C@@H](C2)[C@@]1(C)CC/C=C(/C)CO
Ki [3]: 8.19 µM
Activity [4]: < 16%
Activity ([1]; filed as agonist): 55.8%
Activity [6]: inactive
Activity [7]: inactive
Activity [8]: Active
